Assay results reported in BindingDB's records for doi:10.1021/jm970682+ (University of Louvain, 1998).

Tests used:
[1] = The compound was tested for the affinity on sigma 1 receptor using [3H]- pentazocine as radioligand
[2] = as above; remark: listed apart in the source

Row | SMILES | Ki [1] [nM] | Ki [2] [nM]
1 | CCC(=O)c1ccc2c(c1)sc(=O)n2C(=O)CC [3,6-Dipropionyl-3H-benzothiazol-2-one] | 63 | –
2 | CCCCC(=O)c1ccc2c(c1)sc(=O)n2CCN(C)C [3-(2-Dimethylamino-ethyl)-6-pentanoyl-3H-benzothiazol-2-one] | – | 628
3 | CCC(=O)c1ccc2c(c1)oc(=O)n2CCN1CCCCC1 [3-(2-Piperidin-1-yl-ethyl)-6-propionyl-3H-benzooxazol-2-one] | – | 72
4 | CCC(=O)c1ccc2c(c1)sc(=O)n2CCN1CCCCC1 [3-(2-Piperidin-1-yl-ethyl)-6-propionyl-3H-benzothiazol-2-one] | – | 47
5 | CCCc1ccc2c(c1)sc(=O)n2CCN1CCCCC1 [3-(2-Piperidin-1-yl-ethyl)-6-propyl-3H-benzothiazol-2-one] | – | 0.6

The next lines start with the values.

Row | Ki [1] [nM] | Ki [2] [nM] | SMILES
6 | – | 365 | CN(C)CCn1c(=O)oc2cc(C(=O)c3ccccc3)ccc21 [6-Benzoyl-3-(2-dimethylamino-ethyl)-3H-benzooxazol-2-one]
7 | – | 54 | O=C(c1ccccc1)c1ccc2c(c1)sc(=O)n2CCN1CCCC1 [6-Benzoyl-3-(2-pyrrolidin-1-yl-ethyl)-3H-benzothiazol-2-one]
8 | – | 72 | O=c1oc2cc(Cc3ccccc3)ccc2n1CCN1CCOCC1 [6-Benzyl-3-(2-morpholin-4-yl-ethyl)-3H-benzooxazol-2-one]
9 | – | 571 | CCC(=O)c1ccc2c(c1)sc(=O)n2CCN1CCCC1 [6-Propionyl-3-(2-pyrrolidin-1-yl-ethyl)-3H-benzothiazol-2-one]
